Experimental data taken from PubChem BioAssay AID330 (DTP/NCI, 2004).
Several values for one entry are separate records, joined by “and”; a condition that tells them apart may be missing. Equal entries are not always repeated. Toxic doses and inconclusive results are not listed. The calls were made as follows: active = survival T/C of 150% or more; inactive = T/C below 125% in these data.

System: P388 leukemia ip, CD2F1 mice, survival T/C
Assay: NCI In Vivo Anticancer Drug Screen. Data for tumor model P388 Leukemia (intraperitoneal) in CD2F1 (CDF1) mice
Details: endpoint: median survival time, higher = longer survival
How it was run: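 Mice carrying the transplanted tumor received test compound or vehicle. Survival was recorded in each group, and the value is the treated-group measurement divided by that of the vehicle-treated control group.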

Measured: T/C

CC(=O)Oc1c([N+](=O)[O-])cccc1[N+](=O)[O-]
inactive: dose: 3.13 mg/kg/injection, schedule: Q01DX009 (ip), vehicle: distilled water + Tween-80 111 % of control | dose: 6.25 mg/kg/injection, schedule: Q01DX009 (ip), vehicle: clinical formulation 100 % of control | dose: 6.25 mg/kg/injection, schedule: Q01DX009 (ip), vehicle: distilled water + Tween-80 100 % of control and 112 % of control | dose: 12.5 mg/kg/injection, schedule: Q01DX009 (ip), vehicle: clinical formulation 103 % of control | dose: 12.5 mg/kg/injection, schedule: Q01DX009 (ip), vehicle: distilled water + Tween-80 107 % of control | dose: 25.0 mg/kg/injection, schedule: Q01DX009 (ip), vehicle: clinical formulation 108 % of control | dose: 25.0 mg/kg/injection, schedule: Q01DX009 (ip), vehicle: distilled water + Tween-80 107 % of control | dose: 50.0 mg/kg/injection, schedule: Q01DX009 (ip), vehicle: distilled water + Tween-80 109 % of control and 115 % of control | dose: 100.0 mg/kg/injection, schedule: Q01DX009 (ip), vehicle: distilled water + Tween-80 96 % of control

COC(=O)[C@H]1[C@H]2C[C@@H]3c4[nH]c5cc(OC)ccc5c4CCN3C[C@H]2C[C@@H](OC(=O)c2cc(OC)c(OC)c(OC)c2)[C@@H]1OC
inactive: dose: 0.25 mg/kg/injection, schedule: Q01DX009 (ip), vehicle: Klucel (hydroxypropylcellulose) (HPC) 100 % of control | dose: 0.5 mg/kg/injection, schedule: Q01DX009 (ip), vehicle: Klucel (hydroxypropylcellulose) (HPC) 97 % of control | dose: 1.0 mg/kg/injection, schedule: Q01DX009 (ip), vehicle: Klucel (hydroxypropylcellulose) (HPC) 97 % of control | dose: 2.0 mg/kg/injection, schedule: Q01DX009 (ip), vehicle: Klucel (hydroxypropylcellulose) (HPC) 95 % of control | dose: 4.0 mg/kg/injection, schedule: Q01DX009 (ip), vehicle: Klucel (hydroxypropylcellulose) (HPC) 96 % of control

O=[N+]([O-])c1ccc(C=C2C=CN(CCO)C=C2)cc1
inactive: dose: 50.0 mg/kg/injection, schedule: Q01DX005 (ip), vehicle: saline with Tween-80 100 % of control | dose: 100.0 mg/kg/injection, schedule: Q01DX005 (ip), vehicle: saline with Tween-80 108 % of control
